The values below come from patent US20140228435A1, “COMPOSITION AND METHOD OF SYNTHESIZING A BIOMOLECULE AND ITS THERAPEUTICS APPLICATIONS” (priority 2013, published 2014).

The conditions of data set [1]: cited from earlier work.
A short description of data set [2]: Second trial (second year): J-Factor withdrawn, unconverted N(omega)′-protonated L-arginine given. The conditions noted are these: 1.5 mg per 10 days. The data set is classed as in vivo, human volunteers. On the procedure: After the first year, the applicant withdrew J-Factor and would give the initial N(omega)′protonated L-arginine (reactant) not converted to J-Factor 1.5 mg per 10 days to each volunteer without any other changes and wouldn't make them aware, in order to better compare the reactant and J-Factor.

Data set [3] can be described thus: Acid dissociation constants (pKa), with van't Hoff temperature calculation. The data set is classed as physicochemical. On the procedure: Furthermore, the deprotonation of the guanidinium and N(delta)-protonated diaminomethyleneamino groups is endothermic and reversible. Therefore the results are as follows. • 1—At pH less than 7.48 together with 25° C. or less, the concentration of their deprotonated form in the side chain is too little and insignificant to be chemically considered. • 2—Under physiological conditions (pH 7.40 and 37° C.) of a living body, the concentration of L-2-amino-5-diaminomethyleneamino-pentanoic acid not protonated in the side chain and a extremely weak stimulator for autocrine-paracrine IGF-1, is too little and insignificant to stimulates synthesis and secretion of the IGF-1. • 3—At pH less than 7.48 together with 25° C. or less and under physiological conditions (pH 7.40 and 37° C.), 1-arginine and L-2-amino-5-diaminomethyleneamino-pentanoic acid is practically as protonated in the side chain.
In addition, it has a Pka of 8.39 in the protonated 2-amino group at 37° C. calculated based on the integrated form of the van't Hoff equation and ΔH°=43.8 kj/mol=[…] in the deprotonation of the protonated 2-amino group. Consequently, with respect to/regarding the Henderson-Hasselbalch equation, the formula of the J Factor is as follows: • 1—At 25° C., the dominant structural formula of J-Factor at pH more than 2.17 and less than 9.04 is as follows:
Further, in the conversion of N(omega)′-protonated L-arginine to Larginine and a proton, K (equilibrium constant)=Ka (acid dissociation constant). Consequently, the integrated form of the van't Hoff equation is changed as follows:
Log(Ka2/Ka1)=(ΔH°/R)(1/T1−1/T2)
wherein Ka1 is the acid dissociation constant at absolute temperature T1, Ka2 is the acid dissociation constant at absolute temperature T2. Now, the calculated ratios of Ka2 at 100° C., 75° C., 50° C., 37° C. and 30° C. to Ka1 at 25° C. and their pKa's in the conversion are given below, where pKa is a minus the logarithm of the acid dissociation constant. • 1—At 100° C.: […]

For data set [4] the following is noted: biosynthetic GH, comparison; cited from earlier work.
In data set [5] the test system is muscle (muscular hypertrophy). Kind of data set: Mid-upper arm circumference (MUAC) and muscle circumference (MUAMC), muscular hypertrophy, one-year volunteer trial. The data set is classed as in vivo, human volunteers. On the procedure: (§1) According to an embodiment of the embodiments herein, N(omega)′-protonated L-arginine was chemically converted into J-Factor ex-vivo. To prevent synthetic J-factor from damaging the alimentary canal after oral administration, it was formulated at a pH value that is safe for the canal like 7.0 which is the safest pH. Then, converted/synthetic produced ex-vivo J-Factor was orally administrated to a small group of 11 volunteers for one year. Each volunteers were given 0.5 mg per 10 days (=1.5 mg/month) and photographs were taken in each case to record the changes in their faces and heads.
(§2) In addition, to eliminate other factors probably influencing results during the trial, they were prevented from exercising and changing previous food schedule such as meat except the J-Factor. Their intake of meat was at least 200 gram per day in the food schedule before the trial and wouldn't change during the trial. Because the amount of N(omega)′-protonated L-arginine in raw meat is more than 1%, their intake of N(omega)′-protonated L-arginine was more than 60000 mg per month through meat without change before and during the trial, which was more than 40000 times the J-Factor intake. Anyway, one-third of N (omega)′-protonated L-arginine is chemically converted into J-Factor and they can't separated from each other. Thus, regardless of food L-arginine, Each volunteer took N(omega)′-protonated L-arginine 3 mg per month together with J-Factor that was less than 1/20000 times the N(omega)′-protonated L-arginine intake through meat without change before and during the trial. Therefore, the physical changes observed in the volunteers weren't caused by N(omega)′-protonated L-arginine.
It's derived in cm from the MUAC (mid-upper arm circumference) in cm and the TSF (triceps skin fold) in mm according to the formula “MUAMC=MUAC−(π×TSF/10)”. Finally, the following numbers were measured and concluded: […]

In the next data set the test system is IGF-1mRNA. The data set can be described thus: Expression of IGF-1mRNA in fatty tissue of mid-upper arm by real-time RT-PCR. The data set is classed as in vivo, human volunteers. On the procedure: as §1
as §2, with “Therefore, the physical changes observed in the volunteers weren't caused by N(omega)′-protonated L-arginine.” left out
It's clear that any composition that stimulates the synthesis and secretion of autocrine-paracrine IGF-1 performs it only through increasing the expression of IGF-1mRNA in the cell. Therefore, the expression of IGF-1mRNA was measured in the fatty tissue at the mid-back of the mid-upperarm of the volunteers by real-time RT-PCR (Reverse transcription-polymerase chain reaction) at the beginning and end of the trial and the following numbers were obtained: […]
(In general: In qPCR the cycle at which signal appears reflects the starting amount.)

The test system of the next data set is eye's central vision. Kind of data set: Eye's central vision examined with the E-chart, one-year volunteer trial. The data set is classed as in vivo, human volunteers. More on the design: scale not given here. The conditions noted are these: one value per volunteer. On the procedure: as §1, §2
Eye' central vision was examined with the E-chart and the following numbers were measured and concluded: […]

Data set [6] is described as follows: Physical changes observed in volunteers after one year (photographs of faces and heads). The data set is classed as in vivo, human volunteers. The conditions noted are these: each volunteer after one year of oral J-Factor. On the procedure: as §1, §2
A further data set deals with fatty tissue. Kind of data set: Triceps skin fold (TSF) thickness by caliper at right mid-upper arm, one-year volunteer trial. The data set is classed as in vivo, human volunteers. On the procedure: as §1, §2
Anyway, the triceps skin fold (TSF) thickness was measured in millimetres with the caplier at the mid-back of the right mid-upper arm [mid-point between the tip of the shoulder and the tip of the elbow (olecranon process and the acromium)] to evaluate the change in fatty tissue during the trial. The amounts measured and calculated are listed below: […]

Data set [7] can be described thus: Complications and safety, synthetic J-Factor in the 11 volunteers compared with biosynthetic GH. The data set is classed as in vivo, human volunteers. On the procedure:
as §1
In fact, all of the above mentioned changes help in preventing or limiting the aging signs. The advantage of using ex-vivo synthesized J-Factor of the embodiments herein when compared to biosynthetic GH is shown in the comparative table below: […]

Setting [8] is: Start to End (one year), one value per volunteer.
The mark [9] stands for this setting: sum of 11 volunteers, Start to End.

Usually pKa stands for the pH at which an ionisable group is half protonated.

Where “and” joins values, the source holds several entries; their conditions need not be identical. Equal entries are not always repeated. Where two headings read alike, the source gives them in different places.

On to `NC(N)=O` [protonated urea], for which the pKa in [1] (25° C., protonated urea) is listed as 0.18.
As for `N=C(N)NCCCC(N)C(=O)O` [N(omega)′-protonated L-arginine], the “pKa of guanidinium / N(delta)-protonated diaminomethyleneamino group” value in data set [1] (room temperature (25° C.)) is given as 12.48. Moreover, the “physical changes during the second year” value in data set [2] (after withdrawal of J-Factor, volunteers not aware) is listed as “the physical changes would return”. In addition, the IGF-1 production result in [2] (conclusion from second trial) is “don't stimulated IGF-1 production”. Besides, the pKa in data set [3] (pKa of N(omega)′-protonated guanidino group) was 8.3.
In the case of “Biosynthetic GH: biosynthetic growth hormone, comparator in the advantage table”, in [4], the antigenicity entry is “Antigenic”, the complications entry is on record as “Joint swelling Carpal tunnel” and the diabetogenicity result was “Diabetogenic”.
On to `NC(N)=NCCCC(N)C(=O)O` [J-Factor, N(delta)-protonated L-2-amino-5-diaminomethyleneamino-pentanoic acid], for which, in data set [5] (MUAMC=MUAC−(π×TSF/10), one year after the start, one value per volunteer), the “MUAMC (cm) End” value is 21.2 cm and 24.7 cm and 28.1 cm and 29.5 cm and 19.9 cm and 27.7 cm and 26.9 cm and 27.2 cm and 24.1 cm and 24.0 cm and 21.6 cm. In data set [5] (setting [8]), the “MUAMC (cm) increase” value is 1.7 cm and 1.3 cm and 2.0 cm (2×) and 2.1 cm (2×) and 1.1 cm and 2.7 cm and 1.8 cm and 2.8 cm and 2.4 cm. Moreover, the “MUAC (cm) End” value in [5] (right arm, one year after the start, J-Factor 0.5 mg per 10 days orally, one value per volunteer) was 27.5 cm and 25.6 cm and 29.0 cm and 31.7 cm and 23.0 cm and 31.5 cm and 30.0 cm and 31.6 cm and 28.2 cm and 29.3 cm and 25.9 cm. Further, in data set [5] (setting [9]), the “MUAMC (cm) increase, sum” value is given as 22.0 cm and the “MUAMC increase, percent of sum” value is given as “(8.7%)”. In addition, the “MUAMC (cm) End, sum” value in [5] (sum of 11 volunteers, one year after the start (Start sum 252.9)) is 274.9 cm. The “IGF-1 mRNA increase” value in the data set with IGF-1mRNA (setting [8]) was “yes”. Further, the IGF-1 production result in the data set on IGF-1mRNA (conclusion from one-year trial with ex-vivo synthesized J-Factor) is reported as “stimulated IGF-1 production”. Further, the “IGF-1 mRNA (copy/mg) End” value in the data set with IGF-1mRNA (fatty tissue at mid-back of mid-upper arm, one year after the start, one value per volunteer) is 1.8 × 10^7 copy/mg and 7.7 × 10^7 copy/mg and 1.2 × 10^10 copy/mg and 9.2 × 10^6 copy/mg and 7.2 × 10^8 copy/mg and 6.0 × 10^8 copy/mg and 2.1 × 10^9 copy/mg and 1.0 × 10^10 copy/mg and 5.2 × 10^7 copy/mg and 6.3 × 10^6 copy/mg and 1.1 × 10^9 copy/mg. In the data set with eye's central vision (Start to End (one year)), the “Left Eye' central vision increase” value is “ZERO (2×) and 1 (4×) and 9 and 3 (2×) and 2 (2×)”; the “Right Eye' central vision increase” value is “ZERO (3×) and 1 (2×) and 3 and 2 (4×) and 4”. In the data set on eye's central vision (one year after the start), the “Left Eye' central vision End” value is 10 (8×) and 9 and 3 and 5; the “Right Eye' central vision End” value is 10 (8×) and 8 and 6 and 3. Moreover, in data set [6], the “change in fatty tissue e.g. in abdomen” value is “decrease in fatty tissue e.g. in abdomen”, the “eye's central vision” value is on record as “improvement in eye's central vision”, the hair growth result is listed as “hair growth” and the muscular hypertrophy entry is “muscular hypertrophy”. The “tone and color of facial skin” value in data set [6] is “improved tone and color of facial skin”. In data set [1] (room temperature (25° C.)), the “pKa of carboxyl group” value was 2.17, the “pKa of guanidinium / N(delta)-protonated diaminomethyleneamino group” value is recorded as 12.48 and the “pKa of protonated 2-amino group” value is recorded as 9.04. Besides, the “TSF (mm) End” value in the data set with fatty tissue (J-Factor 0.5 mg per 10 days orally, End = one year after the start, one value per volunteer (11)) was 20 mm and 3 mm (2×) and 7 mm and 10 mm (2×) and 12 mm and 14 mm and 13 mm (2×) and 17 mm. In the data set on fatty tissue (Start to End (one year), J-Factor 0.5 mg per 10 days orally, one value per volunteer), the “TSF (mm) Decrease” value is 18 mm and 3 mm and 4 mm (2×) and 6 mm and 5 mm (2×) and 7 mm (3×) and 19 mm. Moreover, in the data set with fatty tissue (setting [9]), the “TSF (mm) Decrease, sum” value is on record as 85 mm and the “TSF Decrease, percent of sum” value is on record as “(41.7%)”. Further, the “TSF (mm) End, sum” value in the data set with fatty tissue (sum of 11 volunteers, one year after the start (Start sum 207)) is listed as 122 mm. Also, in data set [7] (in the 11 volunteers), the “complications such as joint swelling, carpal tunnel syndrome or joint pain” value is on record as “invention showed no complications”. In addition, in data set [7] (synthetic J-Factor), the antigenicity entry is listed as “Non-antigenic” and the diabetogenicity entry is “Non-diabetogenic”. In addition, the pKa in data set [3] (pKa of guanidinium / N(delta)-protonated diaminomethyleneamino group) is 11.7. Moreover, the pKa in data set [3] (pKa of protonated 2-amino group) was 8.39.
